Laboratory results taken from US20030134859A1 (SANKYO COMPANY, LIMITED, priority 2000, published 2003).

Experiments:
[1] = tested on: Mouse preadipocyte strain 3T3-L1; experiment: Inhibition of differentiation as an indication of acetic acid uptake; format: cell-based; details: Mus musculus, 0.1 μM test substance, control (0.01% dimethylsulfoxide) = 100%, read-out: Rate of Uptake (%) of [2-14C] acetic acid
How it was run: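 Confluent 3T3-L1 cells induced to differentiate for 4 days (insulin, IBMX, dexamethasone, 5% FBS) with test compound at 0.1 μM final or 0.01% DMSO, then 2 days in insulin maintenance medium, at 37 °C, 10% CO2. [2-14C]acetic acid uptake over 1 hr counted by scintillation; expressed as % of DMSO control.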

[2] = tested on: TNF-α production; experiment: Inhibitory activity against cytokine (TNF-α) production in LPS-stimulated RAW264.7 cells; format: cell-based, mouse; details: Mus musculus, 1 μM test compound, LPS 10 ng/mL
Experimental: The mouse monocyte/macrophage cell line, RAW264.7 (ATCC TIB71) was purchased from Dainippon Pharmaceutical Co., Ltd. The RAW264.7 cells were cultured in a CO2 incubator (37° C., 95% of humidity, 5% of CO2) by using the Dulbecco's modified Eagle's medium (DMEM medium; GIBCO, Cat. No. 11995-040) containing bovine fetal serum (the final concentration: 10% (v/v), MOREGATE, lot No. 474030), penicillin G (the final concentration: 50 units/mL […], GIBCO) and streptomycin (the final concentration: 20 μg/mL, GIBCO).
Sixty (60) μL of the RAW264.7 cell suspension (83,000 cells/mL) were plated into each well of a 96-well microplate (5,000 cells/well). After the cells were cultured for 4 hr in a CO2 incubator, 40 μL of DMEM medium containing 25 ng/mL of LPS (Sigma-Aldrich Japan K. K.) were added into each well (final concentration of LPS: 10 ng/mL). The test compound dissolved in DMSO at a concentration of 1 mM was diluted with DMEM medium by 20 times. Then 2 μL/well of the diluted solution were added to wells containing the plated cells (final concentration of the test compound: 1 μM). As the control, 2 μL/well of DMSO diluted with DMEM medium by 20 times were added to wells containing the plated cells either with LPS (final concentration: 10 ng/mL) or without LPS. After these cells were cultured in a CO2 incubator for 15 hr, the supernatant of the medium was recovered. The amount of mTNF-α in the medium supernatant was determined with a mouse TNF-α ELISA kit Quantikine M (R&D System), according to the experiment protocol attached with the kit.
The inhibitory activity of the test compound against TNF-α production was calculated according to the following equation.
A: The amount of TNF-α in the presence of test compound
B: The amount of TNF-α in the control without LPS
C: The amount of TNF-α in the control with 10 ng/mL of LPS
Inhibitory Activity of the Test Compound against TNF-α Production (%)=100−(A−B)/(C−B)×100

[3] = target: T1, human PPAR γ 2 (Homo sapiens, UniProt P37231); experiment: Inhibitory activity against PPAR γ transcription in the presence of agonist compound A, luciferase reporter; format: cell-based; details: in the presence of 10 nM compound A (agonist); MG63 cells transfected with pSG5-hPPARg and pGV-P2-PPRE; 24 hr
T1 construct: expressed in transfected cells; host or cells: human osteosarcoma MG63, transiently co-transfected with pSG5-hPPARg and the reporter pGV-P2-PPRE
T1 sequence (P37231 1-505): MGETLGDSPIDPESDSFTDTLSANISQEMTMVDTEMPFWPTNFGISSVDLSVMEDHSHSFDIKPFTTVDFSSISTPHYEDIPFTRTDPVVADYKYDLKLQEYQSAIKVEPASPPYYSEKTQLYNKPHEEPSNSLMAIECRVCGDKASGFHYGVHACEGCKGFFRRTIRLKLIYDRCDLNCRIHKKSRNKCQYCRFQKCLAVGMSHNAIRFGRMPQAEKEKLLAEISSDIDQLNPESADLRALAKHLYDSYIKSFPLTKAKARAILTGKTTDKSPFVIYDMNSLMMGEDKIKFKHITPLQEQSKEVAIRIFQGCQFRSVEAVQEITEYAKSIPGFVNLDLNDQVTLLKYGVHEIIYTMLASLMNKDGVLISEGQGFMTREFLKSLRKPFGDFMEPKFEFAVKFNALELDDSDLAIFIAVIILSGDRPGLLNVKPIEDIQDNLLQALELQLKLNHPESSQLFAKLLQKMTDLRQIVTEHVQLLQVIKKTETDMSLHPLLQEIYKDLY
Source text: The primers of the polymerase chain reaction (hereinafter “PCR”) were designed according to the gene sequence of human PPAR γ 2 (GenBANK accession No. D83233). […] For this, 2 kinds of polynucleotides shown in the sequence numbers 1 and 2 in the sequence table described below (hereinafter “S1” and “AS1”, respectively) were used as PCR primers.
In order to determine transcriptional activity via PPAR γ, 2 kinds of polynucleotides represented in sequence numbers 3 and 4 in the sequence table described below (hereinafter “S2” and “AS2”, respectively) were used for construction of the reporter plasmid having PPAR responsive element. The DNA fragment inserted was designed based on the gene sequence in the promoter region of rat acylCo-A oxidase (J. D. Tugwood, EMBO J., 11 (2), pp433-439 (1992)). For insertion of the DNA fragment into the reporter plasmid pGV-P2 (TOYO INK MFG CO., LTD), a NheI site and an XhoI site were added to the S2 and AS2, respectively.
Using cDNA library (Clontech) derived from human adipose tissue as a template, DNA oligomers S1 and AS1 that were synthesized in the procedure 1 as primers and Ex-Taq™ (TAKARA BIO INC.) as a thermostable DNA polymerase-PCR was carried out. […] Each cycle consisted of incubation at 94° C. for 1 min for denaturation of the template, then at 55° C. for 30 sec for annealing of DNA oligomers the PCR primer, and then at 72° C. for 30 sec for extension of the chain. The obtained DNA fragments with approximately 1500 base pairs were digested at the Bgl II sites and were inserted into BamHI sites of pSG5. Thus a human PPAR γ expression plasmid named pSG5-hPPAR g was obtained.
Vector pGV-P2 digestion products was prepared by digestion using the restriction enzymes, NheI and XhoI, and purified by 1.0% agarose-gel electrophoresis. The DNA oligomers, S2 and AS2 obtained in Procedure 2, were mixed together and were incubated in a hot bath at 94° C. for 1 min. After the annealing was partially broken, they were further incubated at 25° C. for 1 hr. Thus double-stranded DNA with annealing of S2 and AS2 was formed. Then, the terminus of the double-stranded DNA with annealing of S2 and AS2 was phosphorylated with DNA polynucleotide kinase (TOYOBO CO., LTD). After that, it was ligated to the pGV-P2 digestion products which were prepared previously using the NheI site and XhoI site. Thus the reporter plasmid pGV-P2-PPRE was obtained.
Using the plasmid obtained by the procedures 3 and 4, transformation of Escherichia coli HB-101 strain was carried out by conventional methods. HB-101 strain having the plasmid was incubated in L-broth medium (containing 10 g of trypton (Difco), 5 g of yeast extract (Difco), 5 g of sodium chloride in 1 L of aqueous solution) containing 100 μg/ml of ampicillin at 37° C. for 17 hrs. Then, each plasmid was purified by the alkaline-SDS method and employed for the gene transfection to mammalian cells. After mixing the pSG5-hPPARg, PGV-P2-PPRE and LipofectAMINE reagent (GIBCO BRL), the human osteosarcoma MG63 was transiently transfected. Then the cells were recovered. The recovered cells were plated on a 96-well plate so as to be 30,000 cells/well and cultured in a CO2 incubator (NAPCO) at 37° C. for 24 hr under the condition of 5% CO2, 95%-RH.
Ten (10) nM of the following compound A (although compound A is described here as a representative compound, the compound is not limited to compound A, if the compound exerts a PPAR r agonistic activity) and various concentrations of the test compound were added to culturing medium of the cells prepared in the Procedure 5.

[4] = tested on: Rat white adipocytes; experiment: Stimulation of differentiation of the adipocytes (Oil Red O); format: cell-based; details: Rattus norvegicus, Adipocyte, 120 h, 100 nM test compound; 5 days; Oil Red O ABS550; control = 100%, blank = 0%; Table 7; read-out: Rate of Differentiation (%)
Experimental: Rat white adipocytes contained in the white adipocyte culture kit, which was purchased from HOKUDO, were used. Mediums for proliferation and for differentiation-inducing, which were contained in the white adipocyte culture kit purchased from HOKUDO, were used.
Immediately after arrival of the purchased cells, all medium for transportation was discarded and replaced with 5 ml of proliferation medium (/25 cm^2-flask) and the cells were cultured for one day. Then, a cell suspension was prepared with proliferation medium so as to be 83,000 cells/mL, and the suspension was plated into a type I 96-well collagen-coated microplate (SUMITOMO BAKELITE CO., ltd.) so as to be 5,000 cells/well (60 μL/well). For the blank, the proliferation medium without the cells was plated into the well (blank well) of each plate.
Further, 1) in the group treated with the test compound, 3 μL/well of a solution in which the test compound (100 μM) was dissolved in DMSO solution and diluted with differentiation-inducing medium by 20 times (final concentration of the test compound: 100 nM, final concentration of DMSO: 0.1% (v/v)) were added to the well where the cells were plated. 2) In the control group, 3 μL/well of DMSO solution that was diluted with differentiation-inducing medium by 20 times (final concentration of DMSO: 0.1% (v/v)) were added to the well where the cells were plated. Further, 3) in the blank group, 3 μL/well of DMSO solution that was diluted with differentiation-inducing medium by 20 times (final concentration: 0.1% (v/v)) were added to the blank well.
After culturing for 5 days, all differentiation-inducing medium was discarded and replaced with 60 μL of 10% (v/v) of formaldehyde solution (for fixation) in each well and the cells were kept stationary for 20 min at room temperature. After this the fixative solution was discarded and replaced with 60 μL of 0.2% (v/v) Triton X (Sigma-Aldrich Japan K. K.) solution in each well and kept stationary for 5 min at the room temperature. Then all Triton X solution was discarded and replaced with 60 μL of 60% (v/v) isopropanol solution containing dissolved Oil Red 0 (Sigma-Aldrich Japan K. K.) so as to be 0.3%, which was adipose tissue staining solution, and the well was left stationary for 10 min at room temperature. After the adipose tissue staining solution was discarded, the well was washed twice with 60 μL of 60% (v/v) isopropanol solution. Then, 100 μL of the DMSO were added to each well and stirred for 5 min at room temperature. The absorbance was measured at 550 nm (ABS550) with a multi-plate reader (LabsSystems), and the stained amount by Oil Red 0 was determined. The measured level at ABS550 in the control group was defined as 100%, while the level at ABS550 in the blank group was defined as 0%. The differentiation rate (%) of the adipocytes treated with the test compound was calculated.

[5] = tested on: Rat white adipocytes; experiment: Inhibition of the differentiation of adipocytes (Oil Red O); format: cell-based; details: Rattus norvegicus, Adipocyte, 120 h, 100 nM test compound; 5 days; Oil Red O ABS550; control = 100%, blank = 0%; Table 3; read-out: Rate of Differentiation (%)
How it was run: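 Rat white preadipocytes, 5,000 cells/well, given differentiation medium with compound at 100 nM final (0.1% DMSO) for 5 days at 37 °C. Lipid stained with Oil Red O, eluted in DMSO, read at 550 nm; differentiation % relative to DMSO control (100%) and blank (0%).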

Compound `O=C(Nc1nc(-c2cccc([N+](=O)[O-])c2)cs1)c1cc([N+](=O)[O-])ccc1Cl` [Example 61, N-[4-(3-Nitrophenyl)thiazol-2-yl]-(2-chloro-5-nitrophenyl)carboxamide] has an activity at 0.1 µM [1] of 74.8% and an inhibition at 1 µM ([2]; 15 hr) of 22.6%.
`O=C(Nc1ccc(C(=O)N2CCCC2)cc1)c1cc([N+](=O)[O-])ccc1Cl` [Example 160, N-[4-(Pyrrolidinylcarbonyl)phenyl]-(2-chloro-5-nitrophenyl)carboxamide] showed an IC50 [3] of 110 nM and an activity at 0.1 µM [4] of 128%.
Compound `CN1CCN(C(=O)c2ccc(NC(=O)c3cc([N+](=O)[O-])ccc3Cl)cc2)CC1` [Example 164, N-[4-(4-Methylpiperazin-1-ylcarbonyl)phenyl]-(2-chloro-5-nitrophenyl)carboxamide] has an IC50 [3] of 0.6 nM and an activity at 0.1 µM [4] of 125%.
For `O=C(Nc1ccc(C(=O)N2CCN(c3ccccc3)CC2)cc1)c1cc([N+](=O)[O-])ccc1Cl` [Example 165, N-[4-(4-Phenylpiperazin-1-ylcarbonyl)phenyl]-(2-chloro-5-nitrophenyl)carboxamide], the inhibition at 1 µM ([2]; RAW264.7, 15 h) was 15.7% and the activity at 0.1 µM [5] was 85.8%.
`CCCCCCN(CCCC)c1ccc(-c2ccc(NC(=O)c3cc([N+](=O)[O-])ccc3Cl)cc2)cc1` [Example 199, N-[4-[4-(N-Butyl-N-hexylamino)phenyl]phenyl]-(2-chloro-5-nitrophenyl)carboxamide] showed an inhibition at 1 µM ([2]; RAW264.7, 15 h) of 20.8% and an activity at 0.1 µM [5] of 35.8%.
Compound `CCCCCN(CCC)c1ccc(-c2ccc(NC(=O)c3cc([N+](=O)[O-])ccc3Cl)cc2)cc1` [Example 211, N-[4-[4-(N-Pentyl-N-propylamino)phenyl]phenyl]-(2-chloro-5-nitrophenyl)carboxamide] has an inhibition at 1 µM ([2]; RAW264.7, 15 h) of 27.6% and an activity at 0.1 µM [5] of 37.3%.
`Nc1ccc(-c2csc(NC(=O)c3cc([N+](=O)[O-])ccc3Cl)n2)cc1` [Example 241, N-[4-(4-Aminophenyl)thiazol-2-yl]-(2-chloro-5 nitrophenyl)carboxamide] was tested, and the inhibition at 1 µM ([2]; RAW264.7, 15 h) was 28% and the activity at 0.1 µM [5] was 57.9%.
`CCOC(=O)NC(=O)Nc1ccc(-c2ccc(NC(=O)c3cc([N+](=O)[O-])ccc3Cl)cc2)cc1` [Example 244, N-[4-[4-(Ethoxycarbonylaminocarbonylamino)phenyl]phenyl]-(2-chloro-5-nitrophenyl)carboxamide] gave an inhibition at 1 µM ([2]; RAW264.7, 15 h) of 26.5% and an activity at 0.1 µM [5] of 45%.
